Assay results published in ChEMBL document CHEMBL1131849, “Synthesis and biological characterization of sqbazide, a novel biotinylated photoaffinity probe for the study of the human platelet thromboxane A2 receptor” (Bioorg Med Chem Lett, 1999).
Activity calls are given as the source filed them. No cut-off for these calls is given here.

How the values were obtained:
[1] = species on record: Homo sapiens; assay: Inhibitory activity against human platelet aggregation.; format: functional, organism-based
[2] = species on record: Homo sapiens; assay: Tested for inhibition of platelet aggregation induced by ADP; Inactive; format: functional, organism-based
[3] = target: T1, Thromboxane A2 receptor (Homo sapiens, UniProt P21731); assay: Binding affinity to human platelet TXA2 receptors as ability to displace binding [3H]SQ-29,548
T1 sequence (P21731 whole entry): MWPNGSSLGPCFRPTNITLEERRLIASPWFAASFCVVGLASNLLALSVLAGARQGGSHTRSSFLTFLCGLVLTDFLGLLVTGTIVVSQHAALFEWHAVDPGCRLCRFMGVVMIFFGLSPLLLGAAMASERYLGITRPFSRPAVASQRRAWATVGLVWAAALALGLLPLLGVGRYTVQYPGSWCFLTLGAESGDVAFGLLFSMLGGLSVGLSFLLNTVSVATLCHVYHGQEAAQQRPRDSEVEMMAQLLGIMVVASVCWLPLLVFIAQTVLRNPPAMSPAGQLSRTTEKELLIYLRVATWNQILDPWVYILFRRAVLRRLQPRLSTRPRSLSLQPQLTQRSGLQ

[4] = species on record: Homo sapiens; assay: Tested for inhibition of platelet aggregation induced by A-23187; Inactive; format: functional, organism-based

Question: What does the source list for `[N-]=[N+]=Nc1ccc(CCCC(=O)NCC(=O)NCC2C3CCC(O3)C2C/C=C\CCCC(=O)NNC(=O)CCCC[C@H]2SC[C@H]3NC(=O)N[C@H]32)cc1` (some centres undefined)?
Answer: IC50 [1]: 500 nM; Activity [2]: inactive; Ki [3]: 625 nM; Activity [4]: inactive
